Assay results taken from PubChem BioAssay (NCI).
“And” between values parts separate entries of the source, which are not always exact repeats. Equal entries are not always repeated.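 All cell lines were grown in 96-well plates and treated with compound for 48 hours. GI50 = concentration required for 50% inhibition of growth. TGI is the concentration that stops growth completely.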

Experiments:
Assay in all cases: NCI anticancer screen, dose series, 48 h
HS 578T breast = test system: HS 578T breast
NCI-H460 lung = test system: NCI-H460 lung
ACHN renal = test system: ACHN renal
UACC-62 melanoma = test system: UACC-62 melanoma
HL-60(TB) leukemia = test system: HL-60(TB) leukemia
SW-620 colon = test system: SW-620 colon
HOP-92 NSCLC = test system: HOP-92 NSCLC
HT29 colon = test system: HT29 colon
786-0 renal = test system: 786-0 renal
SK-MEL-28 melanoma = test system: SK-MEL-28 melanoma

Row | Structure (SMILES) | GI50 (HS 578T breast) | TGI (HS 578T breast) | GI50 (NCI-H460 lung) | TGI (NCI-H460 lung) | GI50 (ACHN renal) | TGI (ACHN renal) | GI50 (UACC-62 melanoma) | TGI (UACC-62 melanoma) | GI50 (HL-60(TB) leukemia) | TGI (HL-60(TB) leukemia) | GI50 (SW-620 colon) | TGI (SW-620 colon) | GI50 (HOP-92 NSCLC) | TGI (HOP-92 NSCLC) | GI50 (HT29 colon) | TGI (HT29 colon) | GI50 (786-0 renal) | TGI (786-0 renal) | GI50 (SK-MEL-28 melanoma) | TGI (SK-MEL-28 melanoma)
1 | COc1ccc(/C=C(/c2ccccc2)[N+](=O)[O-])c(OC)c1 | 2.2 µM | 6.65 µM | 1.87 µM | 3.87 µM | 1.49 µM | 2.81 µM | 1.22 µM | 2.7 µM | 1.15 µM | 5.25 µM | 1.73 µM | 4.08 µM | 1.26 µM | 2.76 µM | 2.88 µM | 10.3 µM | 1.62 µM | 3.16 µM | 1.5 µM | 3.03 µM
2 | NC(=N\N=C/c1ccc(O)cc1)/C(N)=N\N=C/c1ccc(O)cc1 | > 68.9 µM | > 100 µM | 13.8 µM | > 100 µM | 3.85 µM | > 100 µM | 2.22 µM | > 52 µM | 0.251 µM |  | > 23.6 µM | > 100 µM | 60.3 µM | > 100 µM | > 100 µM | > 100 µM | 21.1 µM | > 100 µM | > 100 µM | > 100 µM
3 | COc1cc(/C=C/c2ccc(C)cc2)cc(OC)c1OC |  | 9.71 µM |  | > 32.8 µM |  | 35.5 µM |  | 15.6 µM |  | 21.9 µM |  | > 68.6 µM |  | 25.5 µM |  | 9.45 µM |  | 36.6 µM |  | 17.7 µM
4 | O=C1NC(N/N=C\C(O)C(O)C(O)C(O)CO)=N/C1=C/c1ccccc1 (stereo not drawn) | > 100 µM and 24.6 µM | > 100 µM and 73.4 µM | 75.8 µM and 11.8 µM and > 100 µM | > 100 µM and 25.6 µM | 80.6 µM and 14.7 µM and > 100 µM | > 100 µM and 28.1 µM |  | > 100 µM | 77.2 µM and 41.8 µM and > 100 µM | > 100 µM | 54.2 µM and 23 µM and > 100 µM | > 100 µM and 83.4 µM | 60.1 µM and 15.5 µM and > 100 µM | > 100 µM and 33.9 µM | > 100 µM and 23.2 µM | > 100 µM and 44.5 µM | 57.5 µM and 19.3 µM and > 100 µM | > 100 µM and 41.3 µM | 37.3 µM and 24 µM and > 100 µM | > 100 µM
5 | COc1cc2c3c(n(CCCN)c(=O)c2cc1OC)-c1ccc([N+](=O)[O-])cc1C3=O | 22.5 µM | 46.1 µM | 0.572 µM | 2.35 µM | 5.2 µM | 16.7 µM | 11.5 µM | 25.1 µM | 17.8 µM | 37.8 µM | 2.12 µM | 19.1 µM | 10.5 µM | 30.5 µM | 5.07 µM | 21.4 µM | 1.66 µM | 3.55 µM | 17.8 µM | 34.3 µM
6 | COc1ccc(-c2c(C)c(C(=O)O)nc(-c3ccc4c(O)c(OC)c5c(c4n3)=NC(C)(C)N=5)c2N)c(O)c1OC |  | > 100 µM |  | 17 µM |  | 27.7 µM |  | 62.2 µM |  | 37.1 µM |  | 35.4 µM |  | > 100 µM |  | > 100 µM |  | 31.6 µM |  | 59.8 µM
7 | Fc1ccc(-c2ncn(C3CCNCC3)c2-c2ccnc(Oc3ccc4c(c3)OCO4)n2)cc1 | > 12.7 µM | > 25 µM | > 21.7 µM | > 25 µM | 8.82 µM | > 25 µM | > 15.7 µM | > 25 µM | > 21.3 µM | > 25 µM | > 25 µM | > 25 µM | 5.21 µM | > 25 µM | 9.62 µM | > 25 µM | > 23.8 µM | > 25 µM | 8.34 µM | > 23.1 µM
